Assays:
IL-6 = IL-6 secretion by ELISA, LPS-treated primary human M1 macrophages, Example 5; assay type: cell-based
Protocol: Primary human PMBC derived macrophages were seeded on day 0 at 3.0E4 cells per well in 96-well microplates (ThermoFisher) in Dulbecco's Modified Eagle Medium (DMEM) (Gibco) supplemented with penicillin-streptomycin (Hyclone) and 10% heat inactivated fetal bovine serum (HI-FBS) (Atlanta Bio) and incubated overnight at 37° C., 5% CO2. On day 1, cells were washed once with 150 uL per well DPBS (Gibco) and treated with 75 uL of: • a. Amino acid free DMEM (US Biologicals) containing a defined custom amino acid concentration based on the mean physiological concentrations in blood based on values published in the Human Metabolome Database (HMDB), with 6 mM glucose, 1 mM sodium pyruvate, 10 mM HEPES, 0.2% primocin (InVivoGen); or • b. The same media described above with supplemental amino acid and amino acid combination treatments at various concentrations. […]
On day 3, the supernatant was collected and immediately frozen in −80° C. freezer. Cells were washed once with 150 uL DPBS and viability was assessed using the WST-8 Cell Proliferation Cytotoxicity Assay (Dojindo). […] Protein levels in supernatant samples were analyzed by ELISA for IL-6 and TNFa using commercially available kits (R&D Systems) according to manufacturer-supplied protocols.

Urea = Urea production after 72 h by urea nitrogen (BUN) colorimetric assay, PHH model, Example 2; assay type: cell-based, human; conditions: FFA+TNFα
Protocol: PHH from two healthy human donors (Lonza, TRL) were seeded on day 0 at density of 6e04 cells in 96 well optical microplates (Thermofisher) in hepatocyte plating media (William's E medium, WEM) (Gibco) supplemented with 10% heat-inactivated FBS (Atlanta Bio), 2 mM Glutamax (Gibco), and 0.2% Primocin (InVivoGen) and incubated for 6 hours at 37° C., 5% CO2. After 6 hours, cells were washed twice and incubated overnight at 37° C., 5% CO2 with Hepatocytes defined medium (Corning) supplemented with 2 mM Glutamax (Gibco), and 1× Penicillin/Streptomycin. On day 1, cells were washed twice and incubated for 24 h in the hepatocyte culture media in the same conditions described above.
On day 2, cells were washed twice with DPBS 1× (Gibco) to remove excess amino acids and maintained in pretreatment media (1×HMDB, a defined custom amino acid concentration based on the mean physiological concentrations in blood, in WEM±supplemental amino acids): • a. Amino acid-free WEM (US Biologicals) supplemented with 11 mM Glucose (Sigma), 0.272 mM Sodium Pyruvate (Sigma), 1× P/S (Gibco) and containing 1×HMDB with no supplemental amino acids; or • b. The same media described above 1×HMDB WEM with supplemental amino acid and amino acid combination treatments at various concentrations. Cells were maintained in the defined media (a. & b.) for 24 hours at 37° C., 5% CO2. The HMDB values are published in the Human Metabolome Database (Wishart D S, Tzur D, Knox C, et al., HMDB: the Human Metabolome Database. Nucleic Acids Res. 2007 January; 35 (Database issue):D521-6. 17202168; which is hereby incorporated by reference in its entirety). Co-Treatment with Free Fatty Acids and Amino Acids Combination
After 24 h pre-treatment, cells maintained in the pretreatment media±supplemental amino acids (section (a. & b.) described above) were exposed to free fatty acids (FFA) at 250 uM with a ratio of 2:1 (Oleate:Palmitate) supplemented with TNF-α (Thermofisher) at 1 ng/ml. Cells were incubated with the FFAs mixture (FFAs+TNF-α)±supplemental amino acids treatments for 24 hours at 37° C., 5% CO2. After 24 hours incubation, media was removed for cytokine analysis and replaced by fresh media containing the same conditions described above (FFAs mixture±supplemental amino acids treatments). Cells were incubated for an additional 48 hours for a total of 72 hours of FFA and TNF-α stimulation. After 72 hours of incubation, media was removed for albumin and urea analysis and the cells were fixed for nuclei and lipid staining.
Urea was measured as an indicator of hepatocytes functionality by urea nitrogen direct assay (StanBio). Cell supernatant was added to the BUN color reagent and BUN acid reagent at 1(color):2(acid) ratio. Incubate the cell supernatant with BUN reagent for 12 min at 100° C. then for 5 min at 4° C. Read absorbance at 520 nm. Data was normalized to the control. Data is reported as median fold change from control, statistical analysis was done using t-Test.

M1 macrophages = assay: Seahorse XF real-time ATP rate assay in LPS-treated M1 macrophages, Example 6; assay type: cell-based, human
Protocol: Primary human PMBC derived macrophages were seeded on day 0 at 2.0E4 cells per well in a Seahorse […] Cell Culture Microplate V3-PS TC-Treated plate (Agilent) coated with 0.1 mg/mL Poly-D-Lysine (Trevigen) in Dulbecco's Modified Eagle Medium (DMEM) (Gibco) supplemented with penicillin-streptomycin (Gibco) and 10% heat inactivated fetal bovine serum (HI-FBS) (Atlanta Bio) and incubated overnight at 37° C., 5% CO2. On day 1, cells were washed once with 150 uL per well DPBS (Gibco) and treated with 100 uL of: • a. Amino acid free DMEM (US Biologicals) containing a defined custom amino acid concentration based on the mean physiological concentrations in blood based on values published in the Human Metabolome Database (HMDB), with 6 mM glucose, 1 mM sodium pyruvate, 10 mM HEPES (Sigma), and penicillin-streptomycin (Gibco); or • b. The same media described above with supplemental amino acid and amino acid combination treatments at various concentrations. […] Control wells were treated with 0.15 ng/mL LPS, or phosphate buffered saline (PBS). On day 3, the supernatant was collected and immediately frozen in a -80° C. freezer. Cells were analyzed for total ATP production rate, glycolytic ATP production rate, and mitochondrial ATP production rate using a commercially available kit (Agilent Seahorse XF Real-Time ATP Rate Assay Kit) according to manufacturer-supplied protocol on a Seahorse XFe instrument. A custom assay medium (amino acid free DMEM/F12 without phenol red or sodium bicarbonate (US Biologicals) containing a defined custom amino acid concentration based on the mean physiological concentrations in blood based on values published in the Human Metabolome Database (HMDB), with 10 mM XF glucose (Agilent), 1 mM XF pyruvate (Agilent), and 5 mM HEPES (Sigma) was used. Buffer factor for the custom assay medium was determined according to manufacturer-supplied protocol. Following the assay, cells were washed twice with PBS and fixed with 4% paraformaldehyde.

[1] = 30× LIRQNacSCar (7.5 mM Nac and Car) or 7.5 mM Nac vs LPS vehicle control

CC(=O)N[C@@H](CS)C(=O)O [Nac, N-acetylcysteine]
LPS-stimulated IL-6 secretion (in words) (IL-6): decreased LPS-stimulated IL-6 and TNFa secretion
urea production (in words) (Urea; hepatocyte donor 1): No changes in urea production
urea production (in words) (Urea; hepatocyte donor 2): slightly induce urea production
glycolytic ATP production rate (in words) (M1 macrophages; [1]): significantly decreased glycolytic, mitochondrial, and total ATP rate measurements
mitochondrial ATP production rate (in words) (M1 macrophages; [1]): significantly decreased glycolytic, mitochondrial, and total ATP rate measurements
total ATP rate (in words) (M1 macrophages; [1]): significantly decreased glycolytic, mitochondrial, and total ATP rate measurements
Glycolytic ATP Rate, Median Fold Change from Vehicle (Log2) (M1 macrophages; LPS 0.15 ng/mL, 7.5 mM): −0.461 Log2
Mitochondrial ATP Rate, Median Fold Change from Vehicle (Log2) (M1 macrophages; LPS 0.15 ng/mL, 7.5 mM): −0.196 Log2
Total ATP Rate, Median Fold Change from Vehicle (Log2) (M1 macrophages; LPS 0.15 ng/mL, 7.5 mM): −0.2744 Log2

Source: patent US20190388377A1, “COMPOSITIONS AND METHODS FOR THE TREATMENT OF LIVER DISEASES AND DISORDERS” (AXCELLA HEALTH INC., priority 2018, published 2019)
